Laboratory results: patent publication US5668137A, “N-heterocyclic sulfonamides having endothelin receptor activity” (Zeneca Ltd., priority 1995, dated 1997)

System: Human ETA or ETB receptors
Test: Test A: inhibition of [125I]-Endothelin-1 binding to MEL cell membranes expressing recombinant receptor
Details: inhibition of 30 pM [125I]-Endothelin-1 binding, 180 minutes at 30° C., receptor sub-type (ETA or ETB) not stated
Text: The endothelin receptor antagonist activity of compounds of formula I may be assessed in vitro by their ability to inhibit binding of [^125 ]-Endothelin-1 to its receptors. Human ETA or ETB receptors (sub-types of the endothelin receptor) were expressed in Mouse Erythroleukemic Cells (MEL cells) by using standard molecular techniques (for example, as described by Sambrook J., Fritsch E. F. & Maniatis T. (1989) Molecular Cloning: A Laboratory Manual, 2nd Edition, Cold Spring Harbor Press, USA). cDNA sequences encoding the human ETA, and ETB receptor (Hosoda K. et al (1991), FEBS Lett., 287, 23-26 and Sakamoto A. et al, (1991), Biochem. Biophys Res. Comm., 178, 656-663) are subcloned into pBluescript vector followed by insertion into the MEL cell expression vector pEV as described by Needham et al (1992), Nuc. Acids Res., 20, 997-1003. […]
[^125 I]-Endothelin-1 binding to MEL cell membranes was measured in incubation buffer containing 50 mM Tris HCl, 1 mM CaCl2, 0.05% polyoxyethylenesorbitan monolaurate, 0.1% Bovine Serum Albumin (BSA), 0.02% sodium azide pH 7.4 at 30° C. after 180 minutes incubation. […] Nonspecific binding was measured in the presence of 100 nM unlabelled Endothelin-1. […] The filter discs were punched out and counted in a gamma counter. Compounds are tested in triplicate over a range of concentrations and IC50 (or pIC50) values calculated.

**Q.** For COc1nc(C)cnc1NS(=O)(=O)c1ccccc1-c1ccc(CC(C)C(=O)O)cc1 (stereo not shown) [Example 1, 4'-(2-carboxypropyl)-N-(3-methoxy-5-methylpyrazin-2-yl)-2-biphenylsulphonamide], which “pIC50 in Test A” value is on record?
**A.** The value was 8.3.
